Patent US7381744B1, “Method of treating osteoporosis comprising vacuolar-type (H+)-ATPase-inhibiting compounds” (The United States of America as represented by the …, priority 1999, dated 2008)

Assays:
TK-10 = test: NCI 60 cell-line screen; format: cell-based; details: Homo sapiens, Kidney, averaged, quadruplicate testing, read-out: negative log10 GI50 (converted)
Source text: (§1) It is the concentration where 100×(T−To)/To=−50=PG. […] Res., 34, 91-109 (1995).

MCF-7 = test: NCI 60 cell-line screen; format: cell-based; details: Homo sapiens, MCF7, Breast, averaged, quadruplicate testing, read-out: negative log10 GI50 (converted)
Source text: as §1

IGROV1 = test: NCI 60 cell-line screen; format: cell-based; details: Homo sapiens, IGROV-1, Ovary, averaged, quadruplicate testing, read-out: negative log10 GI50 (converted)
Source text: as §1

786-0 = test: NCI 60 cell-line screen; format: cell-based; details: Homo sapiens, Kidney, averaged, quadruplicate testing, read-out: negative log10 GI50 (converted)
Source text: as §1

SK-MEL-2 = test: NCI 60 cell-line screen; format: cell-based; details: Homo sapiens, Melanoma, averaged, quadruplicate testing, read-out: negative log10 GI50 (converted)
Source text: as §1

U251 = test: NCI 60 cell-line screen; format: cell-based; details: Homo sapiens, U-251, Brain, averaged, quadruplicate testing, read-out: negative log10 GI50 (converted)
Source text: as §1

M14 = test: NCI 60 cell-line screen; format: cell-based; details: Homo sapiens, Melanoma, averaged, quadruplicate testing, read-out: negative log10 GI50 (converted)
Source text: as §1

SK-MEL-5 = test: NCI 60 cell-line screen; format: cell-based; details: Homo sapiens, Melanoma, averaged, quadruplicate testing, read-out: negative log10 GI50 (converted)
Source text: as §1

MDA-MB-435 = test: NCI 60 cell-line screen; format: cell-based; details: Homo sapiens, Breast, averaged, quadruplicate testing, read-out: negative log10 GI50 (converted)
Source text: as §1

NCI-H226 = test: NCI 60 cell-line screen; format: cell-based; details: Homo sapiens, Lung, averaged, quadruplicate testing, read-out: negative log10 GI50 (converted)
Source text: as §1

HCT-116 = test: NCI 60 cell-line screen; format: cell-based; details: Homo sapiens, Colon, averaged, quadruplicate testing, read-out: negative log10 GI50 (converted)
Source text: as §1

SW-620 = test: NCI 60 cell-line screen; format: cell-based; details: Homo sapiens, Colon, averaged, quadruplicate testing, read-out: negative log10 GI50 (converted)
Source text: as §1

A549/ATCC = test: NCI 60 cell-line screen; format: cell-based; details: Homo sapiens, Lung, averaged, quadruplicate testing, read-out: negative log10 GI50 (converted)
Source text: as §1

HCC-2998 = test: NCI 60 cell-line screen; format: cell-based; details: Homo sapiens, Colon, averaged, quadruplicate testing, read-out: negative log10 GI50 (converted)
Source text: as §1

HS-578T = test: NCI 60 cell-line screen; format: cell-based; details: Homo sapiens, Breast, averaged, quadruplicate testing, read-out: negative log10 GI50 (converted)
Source text: as §1

LOX-IMVI = test: NCI 60 cell-line screen; format: cell-based; details: Homo sapiens, Melanoma, averaged, quadruplicate testing, read-out: negative log10 GI50 (converted)
Source text: as §1

EKVX = test: NCI 60 cell-line screen; format: cell-based; details: Homo sapiens, Lung, averaged, quadruplicate testing, read-out: negative log10 GI50 (converted)
Source text: as §1

SN-12C = test: NCI 60 cell-line screen; format: cell-based; details: Homo sapiens, SN12C, Kidney, averaged, quadruplicate testing, read-out: negative log10 GI50 (converted)
Source text: as §1

UO-31 = test: NCI 60 cell-line screen; format: cell-based; details: Homo sapiens, Kidney, averaged, quadruplicate testing, read-out: negative log10 GI50 (converted)
Source text: as §1

T-47D = test: NCI 60 cell-line screen; format: cell-based; details: Homo sapiens, T47D, Breast, averaged, quadruplicate testing, read-out: negative log10 GI50 (converted)
Source text: as §1

NCI-H460 = test: NCI 60 cell-line screen; format: cell-based; details: Homo sapiens, Lung, averaged, quadruplicate testing, read-out: negative log10 GI50 (converted)
Source text: as §1

SF-539 = test: NCI 60 cell-line screen; format: cell-based; details: Homo sapiens, Brain, averaged, quadruplicate testing, read-out: negative log10 GI50 (converted)
Source text: as §1

HCT-15 = test: NCI 60 cell-line screen; format: cell-based; details: Homo sapiens, Colon, averaged, quadruplicate testing, read-out: negative log10 GI50 (converted)
Source text: as §1

COLO 205 = test: NCI 60 cell-line screen; format: cell-based; details: Homo sapiens, Colon, averaged, quadruplicate testing, read-out: negative log10 GI50 (converted)
Source text: as §1

OVCAR-3 = test: NCI 60 cell-line screen; format: cell-based; details: Homo sapiens, Ovary, averaged, quadruplicate testing, read-out: negative log10 GI50 (converted)
Source text: as §1

UACC-257 = test: NCI 60 cell-line screen; format: cell-based; details: Homo sapiens, Melanoma, averaged, quadruplicate testing, read-out: negative log10 GI50 (converted)
Source text: as §1

NCI-H23 = test: NCI 60 cell-line screen; format: cell-based; details: Homo sapiens, Lung, averaged, quadruplicate testing, read-out: negative log10 GI50 (converted)
Source text: as §1

ACHN = test: NCI 60 cell-line screen; format: cell-based; details: Homo sapiens, Kidney, averaged, quadruplicate testing, read-out: negative log10 GI50 (converted)
Source text: as §1

[1] = tested on: mammalian vacuolar-type (H+)-ATPase (from chromaffin granule membranes); test: mammalian vacuolar-type (H+)-ATPase inhibition, side-by-side test; format: biochemical; details: chromaffin granule membranes; side-by-side test
Source text: (§2) The inhibitory data were obtained using the same procedures and biological preparations described in Bowman et al., Proc. Natl. Acad. Sci. USA, 85, 7972-7976 (November 1988).

[2] = tested on: vacuolar-type (H+)-ATPase derived from macrophage cells (J774); test: vacuolar-type (H+)-ATPase inhibition assay, membrane vesicles (J774); format: biochemical; details: bafilomycin-sensitive activity; oligomycin 5 μg/ml and vanadate 1 mM present; 37°, 30 minutes
Experimental: (§3) Inhibition of bafilomycin-sensitive vacuolar-type (H+)-ATPase activity was measured in partially purified membrane vesicle preparations from human osteoclastoma cells (hOc), human renal cortical cells (hK), and macrophage cells (J774). The vesicles were prepared by appropriate adaptations of methods described in Gagliardi et al., J. Med. Chem., 41, 1568-1573 (1998); and Gagliardi et al., J. Med. Chem., 41, 1883-1893 (1998).
(§4) Vacuolar-type (H+)-ATPase assays were performed in the presence of oligomycin (5 μg/ml) and vanadate (1 mM) as inhibitors of F- and P-ATPases, respectively. A […] method was used to quantitate the residual bafilomycin-sensitive vacuolar-type (H+)-ATPase activity (see Chan et al., Anal. Biochem., 157, 375-380 (1986)). The assay measures the release of inorganic phosphate from ATP at 37° during 30 minutes of incubation. The reaction is initiated by the addition of MgSO4 ([…]).

[3] = stability in solvents observed during isolation and NMR; format: physicochemical; details: deuterated chloroform
Source text: Therefore, all subsequent attempts at isolation avoided the use of chloroform or exposure of samples to CDCl3, and no further problems with decomposition or loss of bioactivity were encountered. Moreover, there was no indication of any instability of the pure isolated compounds in any of the other common organic solvents employed, nor in aqueous or biological media.
Signals obscured by or unresolved in the first solvent were readily discernible in the second. Consequently, ^1H-^1H COSY, HMQC, and HMBC NMR data were gathered in both solvents. […] From a combination of the HMQC (Table 2) and the COSY spectral data, the partial structures illustrated in FIGS. 5A-5C were generated.

[4] = tested on: fungal vacuolar-type (H+)-ATPase (from Neurospora crassa); test: fungal vacuolar-type (H+)-ATPase inhibition, side-by-side test; format: biochemical
Source text: as §2

[5] = tested on: vacuolar-type (H+)-ATPase derived from human kidney cells (hK); test: vacuolar-type (H+)-ATPase inhibition assay, membrane vesicles (hK); format: biochemical; details: bafilomycin-sensitive activity; oligomycin 5 μg/ml and vanadate 1 mM present; 37°, 30 minutes
Experimental: as §3, §4

## CC/C=C\C=C/C(=O)N/C=C/CC1CC(O)C(C)C/C=C/Cc2cccc(O)c2C(=O)O1 (stereo not drawn) [salicylihalamide A]
TK-10
  GI50: 1820 nM
MCF-7
  GI50: 75.9 nM
IGROV1
  GI50: 12.9 nM
786-0
  GI50: 12 nM
SK-MEL-2
  GI50: 33.9 nM
U251
  GI50: 26.9 nM
M14
  GI50: 1.2 nM
SK-MEL-5
  GI50: 1 nM
MDA-MB-435
  GI50: 15.1 nM
NCI-H226
  GI50: 1.58 nM
HCT-116
  GI50: 1.82 nM
SW-620
  GI50: 28.8 nM
A549/ATCC
  GI50: 2.88 nM
HCC-2998
  GI50: 182 nM
HS-578T
  GI50: 1410 nM
LOX-IMVI
  GI50: 0.776 nM
EKVX
  GI50: 30.2 nM
SN-12C
  GI50: 17 nM
UO-31
  GI50: 4.9 nM
T-47D
  GI50: 4.57 nM
NCI-H460
  GI50: 0.977 nM
SF-539
  GI50: 12.9 nM
HCT-15
  GI50: 3.63 nM
COLO 205
  GI50: 8.51 nM
OVCAR-3
  GI50: 93.3 nM
UACC-257
  GI50: 3.39 nM
NCI-H23
  GI50: 282 nM
ACHN
  GI50: 9.77 nM
[1]
  inhibitory activity against mammalian vacuolar-type (H+)-ATPase: potent inhibitor
[2]
  IC50: 2.8 nM
[3]
  stability in CDCl3: sensitivity of salicylihalamide A to CDCl3
[4]
  inhibitory activity against fungal vacuolar-type (H+)-ATPase: little or no inhibitory activity
[5]
  IC50: 0.3 nM
